Data reported in ChEMBL document CHEMBL3751693, “Synthesis, antimicrobial evaluation and molecular modeling of 5-hydroxyisoquinolinium salt series; the effect of the hydroxyl moiety” (Bioorg Med Chem, 2016).
pIC50: −log10 of the molar value.

Key:
[1] = system: Pichia kudriavzevii; test: Antimicrobial activity against Candida krusei E28 after 48 hrs by spectrophotometry; assay type: functional; settings: E28, 48 h
[2] = system: Klebsiella pneumoniae; test: Antimicrobial activity against clinical isolate Klebsiella pneumoniae D 1175008 after 24 hrs; assay type: functional; settings: D 1175008, 24 h
[3] = system: Nakaseomyces glabratus; test: Antimicrobial activity against Candida glabrata 20/I after 48 hrs by spectrophotometry; assay type: functional
[4] = system: Candida tropicalis; test: Antimicrobial activity against Candida tropicalis 156 after 48 hrs by spectrophotometry; assay type: functional; settings: Candida tropicalis, 156, 48 h
[5] = system: Staphylococcus aureus; test: Antimicrobial activity against clinical isolate methicillin-resistant Staphylococcus aureus H 599608 after 48 hrs; assay type: functional; settings: H 599608, 48 h
[6] = system: Trichophyton mentagrophytes; test: Antimicrobial activity against Trichophyton mentagrophytes 445 after 120 hrs by spectrophotometry; assay type: functional; settings: Trichophyton mentagrophytes, 445, 120 h
[7] = system: Staphylococcus aureus; test: Antimicrobial activity against clinical isolate Staphylococcus aureus CCM 451608 after 24 hrs; assay type: functional; settings: CCM 451608, 24 h
[8] = system: Pseudomonas aeruginosa; test: Antimicrobial activity against clinical isolate Pseudomonas aeruginosa CCM 1961 after 120 hrs; assay type: functional; settings: CCM 1961, 120 h
[9] = system: Enterococcus sp.; test: Antimicrobial activity against clinical isolate Enterococcus sp. J 1436508 after 24 hrs; assay type: functional; settings: J 1436508, 24 h
[10] = system: Trichophyton mentagrophytes; test: Antimicrobial activity against Trichophyton mentagrophytes 445 after 72 hrs by spectrophotometry; assay type: functional; settings: Trichophyton mentagrophytes, 445, 72 h
[11] = system: Klebsiella pneumoniae; test: Antimicrobial activity against clinical isolate Klebsiella pneumoniae D 1175008 after 48 hrs; assay type: functional; settings: D 1175008, 48 h
[12] = system: Aspergillus fumigatus; test: Antimicrobial activity against Aspergillus fumigatus 231 after 48 hrs by spectrophotometry; assay type: functional; settings: Aspergillus fumigatus, 231, 48 h
[13] = system: Candida albicans; test: Antimicrobial activity against Candida albicans ATCC 44859 after 24 hrs by spectrophotometry; assay type: functional; settings: ATCC 44859, 24 h
[14] = system: Aspergillus fumigatus; test: Antimicrobial activity against Aspergillus fumigatus 231 after 24 hrs by spectrophotometry; assay type: functional; settings: Aspergillus fumigatus, 231, 24 h
[15] = Cytotoxicity against CHOK1 cells after 24 hrs by MTT assay; assay type: cell-based; settings: Cricetulus griseus, CHO-K1, 24 h
[16] = system: Trichosporon asahii; test: Antimicrobial activity against Trichosporon asahii 1188 after 24 hrs by spectrophotometry; assay type: functional; settings: Trichosporon asahii, 1188, 24 h
[17] = system: Staphylococcus aureus; test: Antimicrobial activity against clinical isolate Staphylococcus aureus CCM 451608 after 48 hrs; assay type: functional; settings: CCM 451608, 48 h
[18] = system: Staphylococcus epidermidis; test: Antimicrobial activity against clinical isolate Staphylococcus epidermidis H 696608 after 24 hrs; assay type: functional; settings: H 696608, 24 h
[19] = system: Staphylococcus epidermidis; test: Antimicrobial activity against clinical isolate Staphylococcus epidermidis H 696608 after 48 hrs; assay type: functional; settings: H 696608, 48 h
[20] = system: Lichtheimia corymbifera; test: Antimicrobial activity against Absidia corymbifera 272 after 24 hrs by spectrophotometry; assay type: functional; settings: Lichtheimia corymbifera, 272, 24 h
[21] = system: Candida albicans; test: Antimicrobial activity against Candida albicans ATCC 44859 after 48 hrs by spectrophotometry; assay type: functional; settings: ATCC 44859, 48 h
[22] = system: Lichtheimia corymbifera; test: Antimicrobial activity against Absidia corymbifera 272 after 48 hrs by spectrophotometry; assay type: functional; settings: Lichtheimia corymbifera, 272, 48 h
[23] = system: Trichosporon asahii; test: Antimicrobial activity against Trichosporon asahii 1188 after 48 hrs by spectrophotometry; assay type: functional; settings: Trichosporon asahii, 1188, 48 h
[24] = system: Klebsiella pneumoniae; test: Antimicrobial activity against clinical isolate ESBL-Klebsiella pneumoniae J 1436808 after 48 hrs; assay type: functional; settings: J 1436808, 48 h
[25] = system: Staphylococcus aureus; test: Antimicrobial activity against clinical isolate methicillin-resistant Staphylococcus aureus H 599608 after 24 hrs; assay type: functional; settings: H 599608, 24 h
[26] = system: Pichia kudriavzevii; test: Antimicrobial activity against Candida krusei E28 after 24 hrs by spectrophotometry; assay type: functional; settings: E28, 24 h
[27] = system: Klebsiella pneumoniae; test: Antimicrobial activity against clinical isolate ESBL-Klebsiella pneumoniae J 1436808 after 24 hrs; assay type: functional; settings: J 1436808, 24 h
[28] = system: Candida tropicalis; test: Antimicrobial activity against Candida tropicalis 156 after 24 hrs by spectrophotometry; assay type: functional; settings: Candida tropicalis, 156, 24 h
[29] = system: Pseudomonas aeruginosa; test: Antimicrobial activity against clinical isolate Pseudomonas aeruginosa CCM 1961 after 72 hrs; assay type: functional; settings: CCM 1961, 72 h
[30] = system: Escherichia coli; test: Antimicrobial activity against clinical isolate Escherichia coli CCM 4517 after 24 hrs; assay type: functional; settings: CCM 4517, 24 h
[31] = system: Nakaseomyces glabratus; test: Antimicrobial activity against Candida glabrata 20/I after 24 hrs by spectrophotometry; assay type: functional
[32] = system: Enterococcus sp.; test: Antimicrobial activity against clinical isolate Enterococcus sp. J 1436508 after 48 hrs; assay type: functional; settings: J 1436508, 48 h
[33] = system: Escherichia coli; test: Antimicrobial activity against clinical isolate Escherichia coli CCM 4517 after 48 hrs; assay type: functional; settings: CCM 4517, 48 h

SMILES: CCCCCCCCCCCCCC[n+]1ccc2c(O)cccc2c1
- MFC [1]: 3.9 µM
- MIC [1]: 3.9 µM
- MIC [2]: > 500 µM
- MFC [3]: 7.8 µM
- MIC [3]: 3.9 µM
- MFC [4]: 7.8 µM
- MIC [4]: 7.8 µM
- MBC [5]: 2 µM
- MIC [5]: 2 µM
- MFC [6]: 31 µM
- MIC [6]: 16 µM
- MIC [7]: 0.5 µM
- MBC [8]: > 500 µM
- MIC [8]: > 500 µM
- MIC [9]: 63 µM
- MIC [10]: 16 µM
- MBC [11]: > 500 µM
- MIC [11]: > 500 µM
- MFC [12]: 125 µM
- MIC [12]: 31 µM
- MIC [13]: 63 µM
- MIC [14]: 31 µM
- pIC50 [15]: 4.62
- MIC [16]: 7.8 µM
- MBC [17]: 1 µM
- MIC [17]: 0.5 µM
- MIC [18]: 3.9 µM
- MBC [19]: 7.8 µM
- MIC [19]: 3.9 µM
- MIC [20]: 63 µM
- MFC [21]: 63 µM
- MIC [21]: 63 µM
- MFC [22]: 125 µM
- MIC [22]: 63 µM
- MFC [23]: 7.8 µM
- MIC [23]: 7.8 µM
- MBC [24]: > 500 µM
- MIC [24]: 500 µM
- MIC [25]: 2 µM
- MIC [26]: 3.9 µM
- MIC [27]: > 500 µM
- MIC [28]: 7.8 µM
- MIC [29]: > 500 µM
- MIC [30]: > 500 µM
- MIC [31]: 3.9 µM
- MBC [32]: 63 µM
- MIC [32]: 63 µM
- MBC [33]: > 500 µM
- MIC [33]: > 500 µM

SMILES: CCCCCCCCCC[n+]1ccc2ccccc2c1
- MFC [1]: 2 µM
- MIC [1]: 0.5 µM
- MIC [2]: 63 µM
- MFC [3]: 31 µM
- MIC [3]: 7.8 µM
- MFC [4]: 7.8 µM
- MIC [4]: 3.8 µM
- MBC [5]: 125 µM
- MIC [5]: 31 µM
- MFC [6]: 125 µM
- MIC [6]: 63 µM
- MIC [7]: 16 µM
- MBC [8]: > 500 µM
- MIC [8]: > 500 µM
- MIC [9]: 63 µM
- MIC [10]: 63 µM
- MBC [11]: 125 µM
- MIC [11]: 63 µM
- MFC [12]: > 500 µM
- MIC [12]: 500 µM
- MIC [13]: 16 µM
- MIC [14]: 500 µM
- pIC50 [15]: 4.39
- MIC [16]: 250 µM
- MBC [17]: 31 µM
- MIC [17]: 16 µM
- MIC [18]: 2 µM
- MBC [19]: 16 µM
- MIC [19]: 2 µM
- MIC [20]: > 500 µM
- MFC [21]: 63 µM
- MIC [21]: 16 µM
- MFC [22]: > 500 µM
- MIC [22]: > 500 µM
- MFC [23]: 250 µM
- MIC [23]: 250 µM
- MBC [24]: 500 µM
- MIC [24]: 250 µM
- MIC [25]: 31 µM
- MIC [26]: 0.5 µM
- MIC [27]: 250 µM
- MIC [28]: 3.9 µM
- MIC [29]: > 500 µM
- MIC [30]: 63 µM
- MIC [31]: 7.8 µM
- MBC [32]: 125 µM
- MIC [32]: 63 µM
- MBC [33]: 125 µM
- MIC [33]: 63 µM
